Data as given in ChEMBL document CHEMBL1138025, “Nocathiacin I analogues: synthesis, in vitro and in vivo biological activity of novel semi-synthetic thiazolyl peptide antibiotics” (Bioorg Med Chem Lett, 2004).
In brackets after ≈: the same amount, converted by molar mass.

Key:
[1] = tested on: Enterococcus faecalis; experiment: In vitro antibacterial activity against methicillin-sensitive Enterococcus faecalis A20688; assay type: functional
[2] = tested on: Streptococcus pneumoniae; experiment: In vitro antibacterial activity against penicillin-resistant Streptococcus pneumoniae A28272; assay type: functional
[3] = Equilibrium water solubility at pH 3.4; assay type: physicochemical
[4] = tested on: Staphylococcus aureus; experiment: In vitro antibacterial activity against methicillin-sensitive Staphylococcus aureus A15090; assay type: functional
[5] = tested on: Mus musculus; experiment: In vivo efficacy (PD50) against lethal Staphylococcus aureus systemic infection model in mice; assay type: functional; details: read-out: PD50
[6] = Equilibrium water solubility at pH 3.0; assay type: physicochemical
[7] = Equilibrium water solubility at pH 3.1; assay type: physicochemical
[8] = Equilibrium water solubility at pH 2.9; assay type: physicochemical

Compound	MIC [1] [µg/mL]	MIC [2] [µg/mL]	solubility thermodynamic [3] [µg/mL]	MIC [4] [µg/mL]	ED50 [5] [mg/kg]	solubility thermodynamic [6] [µg/mL]	solubility thermodynamic [7] [µg/mL]	solubility thermodynamic [8] [µg/mL]
CO/C(C)=C1/NC(=O)[C@H]([C@@H](C)O)NC(=O)c2csc(n2)-c2cc(O)c(-c3nc(C(=O)NC(CNCCc4ccccn4)C(N)=O)cs3)nc2-c2csc(n2)C2COC(=O)c3c4c5c(cccc5n3O)COC(=O)[C@@H](O[C@H]3C[C@](C)(O)[C@H](N(C)C)[C@H](C)O3)[C@@H](OC4)[C@H](NC(=O)c3csc1n3)c1nc(cs1)C(=O)N2 (stereo partly drawn)	1 (≈ 0.641 µM)	0.25 (≈ 0.16 µM)	> 10000	1 (≈ 0.641 µM)	2.8			
CO/C(C)=C1/NC(=O)[C@H]([C@@H](C)O)NC(=O)c2csc(n2)-c2cc(O)c(-c3nc(C(=O)NC(CN4CCN(CCN5CCOCC5)CC4)C(N)=O)cs3)nc2-c2csc(n2)[C@@H]2COC(=O)c3c4c5c(cccc5n3O)COC(=O)[C@@H](O[C@H]3C[C@](C)(O)[C@H](N(C)C)[C@H](C)O3)[C@@H](OC4)[C@H](NC(=O)c3csc1n3)c1nc(cs1)C(=O)N2 (stereo partly drawn)	0.5 (≈ 0.305 µM)	0.06 (≈ 0.0367 µM)		0.25 (≈ 0.153 µM)	1.4	> 12300		
CO/C(C)=C1/NC(=O)[C@H]([C@@H](C)O)NC(=O)c2csc(n2)-c2cc(O)c(-c3nc(C(=O)NC(CNCCN(C)C)C(N)=O)cs3)nc2-c2csc(n2)[C@@H]2COC(=O)c3c4c5c(cccc5n3O)COC(=O)[C@@H](O[C@H]3C[C@](C)(O)[C@H](N(C)C)[C@H](C)O3)[C@@H](OC4)[C@H](NC(=O)c3csc1n3)c1nc(cs1)C(=O)N2 (stereo partly drawn)	4 (≈ 2.62 µM)	0.03 (≈ 0.0197 µM)		2 (≈ 1.31 µM)	4.2		> 3800	
CO/C(C)=C1/NC(=O)[C@H]([C@@H](C)O)NC(=O)c2csc(n2)-c2cc(O)c(-c3nc(C(=O)NC(CN(CCO)CCO)C(N)=O)cs3)nc2-c2csc(n2)[C@@H]2COC(=O)c3c4c5c(cccc5n3O)COC(=O)[C@@H](O[C@H]3C[C@](C)(O)[C@H](N(C)C)[C@H](C)O3)[C@@H](OC4)[C@H](NC(=O)c3csc1n3)c1nc(cs1)C(=O)N2 (stereo partly drawn)	0.25 (≈ 0.162 µM)	0.01 (≈ 0.00648 µM)		0.12 (≈ 0.0778 µM)	5			> 1700
CO/C(C)=C1/NC(=O)[C@H]([C@@H](C)O)NC(=O)c2csc(n2)-c2cc(O)c(-c3nc(C(=O)NC(CN4CCOCC4)C(N)=O)cs3)nc2-c2csc(n2)[C@@H]2COC(=O)c3c4c5c(cccc5n3O)COC(=O)[C@@H](O[C@H]3C[C@](C)(O)[C@H](N(C)C)[C@H](C)O3)[C@@H](OC4)[C@H](NC(=O)c3csc1n3)c1nc(cs1)C(=O)N2 (stereo partly drawn)	0.01 (≈ 0.00656 µM)	0.01 (≈ 0.00656 µM)		0.007 (≈ 0.00459 µM)	0.8		> 2100	
CO/C(C)=C1/NC(=O)[C@H]([C@@H](C)O)NC(=O)c2csc(n2)-c2cc(O)c(-c3nc(C(=O)NC(CN4CCN(C)CC4)C(N)=O)cs3)nc2-c2csc(n2)[C@@H]2COC(=O)c3c4c5c(cccc5n3O)COC(=O)[C@@H](O[C@H]3C[C@](C)(O)[C@H](N(C)C)[C@H](C)O3)[C@@H](OC4)[C@H](NC(=O)c3csc1n3)c1nc(cs1)C(=O)N2 (stereo partly drawn)	0.5 (≈ 0.325 µM)	0.12 (≈ 0.078 µM)	> 10000	0.25 (≈ 0.163 µM)	1.4			
CO/C(C)=C1/NC(=O)[C@H]([C@@H](C)O)NC(=O)c2csc(n2)-c2cc(O)c(-c3nc(C(=O)NC(CNCCNC(C)=O)C(N)=O)cs3)nc2-c2csc(n2)[C@@H]2COC(=O)c3c4c5c(cccc5n3O)COC(=O)[C@@H](O[C@H]3C[C@](C)(O)[C@H](N(C)C)[C@H](C)O3)[C@@H](OC4)[C@H](NC(=O)c3csc1n3)c1nc(cs1)C(=O)N2 (stereo partly drawn)	4 (≈ 2.6 µM)	0.12 (≈ 0.0779 µM)		1 (≈ 0.649 µM)	> 10		> 3000	
CCOC(=O)CN1CCN(CC(NC(=O)c2csc(-c3nc4c(cc3O)-c3nc(cs3)C(=O)N[C@@H]([C@@H](C)O)C(=O)N/C(=C(\C)OC)c3nc(cs3)C(=O)N[C@@H]3c5nc(cs5)C(=O)N[C@@H](COC(=O)c5c6c7c(cccc7n5O)COC(=O)[C@@H](O[C@H]5C[C@](C)(O)[C@H](N(C)C)[C@H](C)O5)[C@H]3OC6)c3nc-4cs3)n2)C(N)=O)CC1 (stereo partly drawn)	0.25 (≈ 0.155 µM)	0.007 (≈ 0.00435 µM)		0.06 (≈ 0.0373 µM)				
CO/C(C)=C1/NC(=O)[C@H]([C@@H](C)O)NC(=O)c2csc(n2)-c2cc(O)c(-c3nc(C(=O)NC(CN4CCN(c5ccncc5)CC4)C(N)=O)cs3)nc2-c2csc(n2)[C@@H]2COC(=O)c3c4c5c(cccc5n3O)COC(=O)[C@@H](O[C@H]3C[C@](C)(O)[C@H](N(C)C)[C@H](C)O3)[C@@H](OC4)[C@H](NC(=O)c3csc1n3)c1nc(cs1)C(=O)N2 (stereo partly drawn)	0.5 (≈ 0.312 µM)	0.06 (≈ 0.0375 µM)		0.25 (≈ 0.156 µM)	4.5	> 12500		
CO/C(C)=C1/NC(=O)[C@H]([C@@H](C)O)NC(=O)c2csc(n2)-c2cc(O)c(-c3nc(C(=O)NC(CN(C)CCO)C(N)=O)cs3)nc2-c2csc(n2)[C@@H]2COC(=O)c3c4c5c(cccc5n3O)COC(=O)[C@@H](O[C@H]3C[C@](C)(O)[C@H](N(C)C)[C@H](C)O3)[C@@H](OC4)[C@H](NC(=O)c3csc1n3)c1nc(cs1)C(=O)N2 (stereo partly drawn)	0.06 (≈ 0.0397 µM)	0.01 (≈ 0.00661 µM)	> 10000	0.01 (≈ 0.00661 µM)	0.8			
CO/C(C)=C1/NC(=O)[C@H]([C@@H](C)O)NC(=O)c2csc(n2)-c2cc(O)c(-c3nc(C(=O)NC(CN(C)CCN(C)C)C(N)=O)cs3)nc2-c2csc(n2)[C@@H]2COC(=O)c3c4c5c(cccc5n3O)COC(=O)[C@@H](O[C@H]3C[C@](C)(O)[C@H](N(C)C)[C@H](C)O3)[C@@H](OC4)[C@H](NC(=O)c3csc1n3)c1nc(cs1)C(=O)N2 (stereo partly drawn)	0.5 (≈ 0.325 µM)	0.007 (≈ 0.00455 µM)		0.06 (≈ 0.039 µM)	3.3			> 10000
CO/C(C)=C1/NC(=O)[C@H]([C@@H](C)O)NC(=O)c2csc(n2)-c2cc(O)c(-c3nc(C(=O)NC(CN(C)CCCNc4ccncc4)C(N)=O)cs3)nc2-c2csc(n2)[C@@H]2COC(=O)c3c4c5c(cccc5n3O)COC(=O)[C@@H](O[C@H]3C[C@](C)(O)[C@H](N(C)C)[C@H](C)O3)[C@@H](OC4)[C@H](NC(=O)c3csc1n3)c1nc(cs1)C(=O)N2 (stereo partly drawn)	0.5 (≈ 0.312 µM)	0.25 (≈ 0.156 µM)		1 (≈ 0.624 µM)	> 10	> 3000		
CO/C(C)=C1/NC(=O)[C@H]([C@@H](C)O)NC(=O)c2csc(n2)-c2cc(O)c(-c3nc(C(=O)NC(CN4CCCC4)C(N)=O)cs3)nc2-c2csc(n2)[C@@H]2COC(=O)c3c4c5c(cccc5n3O)COC(=O)[C@@H](O[C@H]3C[C@](C)(O)[C@H](N(C)C)[C@H](C)O3)[C@@H](OC4)[C@H](NC(=O)c3csc1n3)c1nc(cs1)C(=O)N2 (stereo partly drawn)	0.5 (≈ 0.331 µM)	0.01 (≈ 0.00663 µM)		0.06 (≈ 0.0398 µM)	2.5			> 3000
CO/C(C)=C1/NC(=O)[C@H]([C@@H](C)O)NC(=O)c2csc(n2)-c2cc(O)c(-c3nc(C(=O)NC(CN4CCN(c5cccnc5)CC4)C(N)=O)cs3)nc2-c2csc(n2)[C@@H]2COC(=O)c3c4c5c(cccc5n3O)COC(=O)[C@@H](O[C@H]3C[C@](C)(O)[C@H](N(C)C)[C@H](C)O3)[C@@H](OC4)[C@H](NC(=O)c3csc1n3)c1nc(cs1)C(=O)N2 (stereo partly drawn)	0.25 (≈ 0.156 µM)	0.007 (≈ 0.00437 µM)		0.06 (≈ 0.0375 µM)	1.43	> 2300		
CO/C(C)=C1/NC(=O)[C@H]([C@@H](C)O)NC(=O)c2csc(n2)-c2cc(O)c(-c3nc(C(=O)NC(CN(C)CCN4CCCCC4)C(N)=O)cs3)nc2-c2csc(n2)[C@@H]2COC(=O)c3c4c5c(cccc5n3O)COC(=O)[C@@H](O[C@H]3C[C@](C)(O)[C@H](N(C)C)[C@H](C)O3)[C@@H](OC4)[C@H](NC(=O)c3csc1n3)c1nc(cs1)C(=O)N2 (stereo partly drawn)	1 (≈ 0.633 µM)	0.03 (≈ 0.019 µM)		0.12 (≈ 0.076 µM)	3.2	> 2700		
CO/C(C)=C1/NC(=O)[C@H]([C@@H](C)O)NC(=O)c2csc(n2)-c2cc(O)c(-c3nc(C(=O)NC(CN4CCN(CCN(C)C)CC4)C(N)=O)cs3)nc2-c2csc(n2)[C@@H]2COC(=O)c3c4c5c(cccc5n3O)COC(=O)[C@@H](O[C@H]3C[C@](C)(O)[C@H](N(C)C)[C@H](C)O3)[C@@H](OC4)[C@H](NC(=O)c3csc1n3)c1nc(cs1)C(=O)N2 (stereo partly drawn)	0.12 (≈ 0.0752 µM)	0.25 (≈ 0.157 µM)	> 3800	0.5 (≈ 0.314 µM)	5.3			
CO/C(C)=C1/NC(=O)[C@H]([C@@H](C)O)NC(=O)c2csc(n2)-c2cc(O)c(-c3nc(C(=O)NC(CN4CCN(c5ccccn5)CC4)C(N)=O)cs3)nc2-c2csc(n2)[C@@H]2COC(=O)c3c4c5c(cccc5n3O)COC(=O)[C@@H](O[C@H]3C[C@](C)(O)[C@H](N(C)C)[C@H](C)O3)[C@@H](OC4)[C@H](NC(=O)c3csc1n3)c1nc(cs1)C(=O)N2 (stereo partly drawn)	0.25 (≈ 0.156 µM)	0.03 (≈ 0.0187 µM)		0.12 (≈ 0.075 µM)	< 0.62	> 2400		
CNCCN(C)CC(NC(=O)c1csc(-c2nc3c(cc2O)-c2nc(cs2)C(=O)N[C@@H]([C@@H](C)O)C(=O)N/C(=C(\C)OC)c2nc(cs2)C(=O)N[C@@H]2c4nc(cs4)C(=O)N[C@@H](COC(=O)c4c5c6c(cccc6n4O)COC(=O)[C@@H](O[C@H]4C[C@](C)(O)[C@H](N(C)C)[C@H](C)O4)[C@H]2OC5)c2nc-3cs2)n1)C(N)=O (stereo partly drawn)	0.5 (≈ 0.328 µM)	0.001 (≈ 0.000655 µM)		0.06 (≈ 0.0393 µM)	> 10	> 2800		
CO/C(C)=C1/NC(=O)[C@H]([C@@H](C)O)NC(=O)c2csc(n2)-c2cc(O)c(-c3nc(C(=O)NC(CN4CCN(CCOCCO)CC4)C(N)=O)cs3)nc2-c2csc(n2)[C@@H]2COC(=O)c3c4c5c(cccc5n3O)COC(=O)[C@@H](O[C@H]3C[C@](C)(O)[C@H](N(C)C)[C@H](C)O3)[C@@H](OC4)[C@H](NC(=O)c3csc1n3)c1nc(cs1)C(=O)N2 (stereo partly drawn)	1 (≈ 0.62 µM)	0.12 (≈ 0.0745 µM)		0.5 (≈ 0.31 µM)	1.34		> 3000	
